pIC50: −log10 of the molar value.

Consider 22 molecules from patent publication US9221838B2, “Inhibitors of AKT activity” (ALMAC DISCOVERY LIMITED, priority 2009, dated 2015).

Holding throughout (format): biochemical
For assay [1], the target named is T1, AKT1 (Homo sapiens, UniProt P31749).
T1 construct: purchased SignalChem
As to the kind of experiment: AKT Kinase Assay (IMAP fluorescent polarisation) vs AKT1. Here is the method:
(§1) Testing of the compounds was performed using an AKT Kinase Assay:
(§2) Activated AKT isoforms 1, 2 and 3 were assayed utilising a 5′ FAM Crosstide (Seq. GRPRTSSFAEG-OH)(SEO ID NO: 1). The extent of kinase phosphorylation was determined by fluorescent polarisation using IMAP progressive binding reagent, which introduces binding beads which allow the reagent to specifically bind to phosphate residues via covalent co-ordination complex bonds.
(§3) iMAP binding solution stops Crosstide/kinase interaction and specifically binds phosphorylated substrates. The degree of phosphorylation is determined by fluorescent polarisation (excitation 485 nm; emission 528 nm) or the reduction in speed of rotation of the excited substrate.
(§4) The following materials were used in the assay: • a) Activated AKT isoforms (SignalChem.) dissolved in Complete Reaction buffer at a pre-determined concentration selected so that the assay was carried out in the linear range. • b) AKT substrate peptide: FAM Crosstide (R7110) Molecular Devices, diluted in complete reaction buffer. • c) iMAP Progressive Screening Express Kit (R8127) Molecular Devices • d) Complete Reaction Buffer containing 0.1% BSA, 10 mM Tris-HCl, 10 mM MgCl2, 0.05% NaN3 and 0.01% phosphate free BSA, 1 mM DTT • e) Progressive Binding Solution containing 75% Buffer A, 25% Buffer B and low volume Binding Reagent which contains the binding entity for the assay • f) ATP diluted in complete reaction buffer • g) Black polystyrene 384 well assay plates (Nunc). • h) Biotek Synergy 4 Hybrid Plate reader.
(§5) 5 μl of test compound was dissolved in DMSO (Sigma Aldrich) and serially diluted in complete reaction buffer to give a fourteen point half log dose response and plated into 384 well black plates. The compound was incubated at room temperature with activated AKT isoform ([…] ) at the pre-determined concentration, for 45 minutes.
(§6) 2.5 μl of ATP solution mixed with 2.5 μl of AKT substrate peptide (FAM Crosstide (R7110) Molecular Devices) were dispensed into each well and the plate centrifuged at 1000 rpm for 20 seconds to ensure homogenous mixing of reagents. The reaction mix was incubated in the dark for one hour at room temperature.
(§7) The kinase reaction was stopped by the addition of Progressive Binding Solution and the mixture allowed to equilibrate for one hour in the dark, at room temperature.
(§8) The fluorescent polarisation generated in each well was determined using a […] Synergy 4 Hybrid plate reader. In brief, each reaction solution was excited at 485 nm with the emission measured at 528 nm in both the parallel and perpendicular pathway.
(§9) The polarisation value generated in each well was calculated by Gen5 software (Biotek) and the % inhibition of kinase activity compared to vehicle control was calculated via GraphPad Prism. IC50 values for each compound were calculated by non-linear regression analysis using Prism software.
(§10) All plates were internally controlled by two methods. Firstly, by calculating the signal:noise ratio; based on kinase polarisation without inhibitor and polarisation generated by complete reaction buffer in the absence of activated kinase. Secondly by determining IC50 values generated by known inhibitors of the AKT isoforms.

Assay [2] deals with T2, AKT3 (Homo sapiens, UniProt Q9Y243).
T2 construct: purchased SignalChem
T2 sequence (Q9Y243 whole entry): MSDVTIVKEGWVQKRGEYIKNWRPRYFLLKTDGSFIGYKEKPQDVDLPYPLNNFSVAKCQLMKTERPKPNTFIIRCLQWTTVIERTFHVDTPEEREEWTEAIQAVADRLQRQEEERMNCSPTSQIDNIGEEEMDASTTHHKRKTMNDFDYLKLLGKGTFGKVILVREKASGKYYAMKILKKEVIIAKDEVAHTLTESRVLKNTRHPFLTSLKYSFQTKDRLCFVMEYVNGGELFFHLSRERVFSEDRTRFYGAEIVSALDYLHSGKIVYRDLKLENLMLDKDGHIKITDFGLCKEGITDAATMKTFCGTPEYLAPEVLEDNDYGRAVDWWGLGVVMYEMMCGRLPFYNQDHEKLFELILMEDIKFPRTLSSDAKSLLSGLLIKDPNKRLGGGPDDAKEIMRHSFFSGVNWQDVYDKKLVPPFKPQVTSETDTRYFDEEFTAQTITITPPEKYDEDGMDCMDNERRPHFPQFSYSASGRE
As to the kind of experiment: AKT Kinase Assay (IMAP fluorescent polarisation) vs AKT3. The protocol:
as §1, §2, §3, §4, §5, §6, §7, §8, §9, §10

The target in assay [3] is T3, AKT2 (Homo sapiens, UniProt P31751).
T3 construct: purchased SignalChem
T3 sequence (P31751 whole entry): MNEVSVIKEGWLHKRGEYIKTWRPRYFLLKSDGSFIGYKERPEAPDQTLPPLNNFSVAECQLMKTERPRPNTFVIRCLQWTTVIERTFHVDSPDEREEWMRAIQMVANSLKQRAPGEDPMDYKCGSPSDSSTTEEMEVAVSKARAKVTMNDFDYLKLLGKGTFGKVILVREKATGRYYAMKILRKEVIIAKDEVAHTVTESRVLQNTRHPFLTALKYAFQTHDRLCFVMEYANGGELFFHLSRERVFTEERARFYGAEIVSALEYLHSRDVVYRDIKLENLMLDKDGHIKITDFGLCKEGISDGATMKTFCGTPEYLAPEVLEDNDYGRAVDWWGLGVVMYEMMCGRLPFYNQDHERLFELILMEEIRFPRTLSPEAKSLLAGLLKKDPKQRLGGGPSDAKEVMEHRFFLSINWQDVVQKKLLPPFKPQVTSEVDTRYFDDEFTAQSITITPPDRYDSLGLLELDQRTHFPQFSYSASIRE
As to the kind of experiment: AKT Kinase Assay (IMAP fluorescent polarisation) vs AKT2. The protocol:
as §1, §2, §3, §4, §5, §6, §7, §8, §9, §10

T1 sequence (P31749 whole entry): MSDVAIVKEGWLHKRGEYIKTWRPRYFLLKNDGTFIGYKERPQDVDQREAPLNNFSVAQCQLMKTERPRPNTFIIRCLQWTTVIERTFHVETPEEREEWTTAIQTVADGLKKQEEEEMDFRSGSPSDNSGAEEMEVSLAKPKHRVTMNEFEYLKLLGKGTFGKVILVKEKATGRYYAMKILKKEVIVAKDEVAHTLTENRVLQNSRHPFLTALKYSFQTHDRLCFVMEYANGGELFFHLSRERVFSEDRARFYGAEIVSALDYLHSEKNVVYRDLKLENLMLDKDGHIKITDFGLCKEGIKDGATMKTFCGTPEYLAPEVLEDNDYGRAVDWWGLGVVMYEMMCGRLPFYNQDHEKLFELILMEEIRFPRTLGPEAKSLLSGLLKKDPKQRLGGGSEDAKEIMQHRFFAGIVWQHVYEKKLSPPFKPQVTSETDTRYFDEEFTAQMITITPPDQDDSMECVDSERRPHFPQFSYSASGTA

As for `CN(C)CCN1CCc2nc(-c3ccc(C4(N)CCC4)cc3)c(-c3ccccc3)cc2C1=O` [Example 25], the pIC50 was 6.00 to 7.00 in assay [1], less than 5.00 in assay [2] and 5.00 to 6.00 in assay [3].

As to `NC1(c2ccc(-c3nc4c(cc3-c3ccccc3)-c3n[nH]c(=O)n3CC4)cc2)CCC1` [Example 26, 8-(4-(1-aminocyclobutyl)phenyl)-9-phenyl-5,6-dihydro-[1,2,4]triazolo[3,4][1,6]naphthyridin-3(2H)-one], the figures for the pIC50 in assay [1], in assay [2] and in assay [3] were not below 7.00, less than 5.00 and 5.00 to 6.00, respectively.

For the molecule `CCN1CCc2nc(-c3ccc(C4(N)CCC4)cc3)c(-c3ccccc3)cc2C1` [Example 27, 1-(4-(6-ethyl-3-phenyl-5,6,7,8-tetrahydro-1,6-naphthyridin-2-yl)phenyl)cyclobutanamine], the pIC50 in assay [1] was 5.00 to 6.00; in assay [2], less than 5.00; in assay [3], less than 5.00.

Take `Cn1cnc(-c2nnc3n2CCc2nc(-c4ccc(C5(N)CCC5)cc4)c(-c4ccccc4)cc2-3)c1` [Example 29, 1-(4-(3-(1-methyl-1H-imidazol-4-yl)-9-phenyl-5,6-dihydro-[1,2,4]triazolo[3,4-f][1,6]naphthyridin-8-yl)phenyl)cyclobutanamine]: the pIC50 is not below 7.00 in assay [1], less than 5.00 in assay [2] and 6.00 to 7.00 in assay [3].

`NC1(c2ccc(-c3nc4c(cc3-c3ccccc3)NC(=O)CO4)cc2)CCC1` [Example 30, 6-(4-(1-aminocyclobutyl)phenyl)-7-phenyl-1H-pyrido[2,3-b][1,4]oxazin-2(3H)-one]: the pIC50 in assay [1], in assay [2] and in assay [3] was 5.00 to 6.00 in each case.

With `C#CCN1C(=O)COc2nc(-c3ccc(C4(N)CCC4)cc3)c(-c3ccccc3)cc21` [Example 32, 6-(4-(1-aminocyclobutyl)phenyl)-7-phenyl-1-(prop-2-yn-1-yl)-1H-pyrido[2,3-b][1,4]oxazin-2(3H)-one], the values for the pIC50 in assay [1], in assay [2] and in assay [3] were 6.00 to 7.00, less than 5.00 and 6.00 to 7.00, respectively.

Consider `N#CCN1C(=O)COc2nc(-c3ccc(C4(N)CCC4)cc3)c(-c3ccccc3)cc21` [Example 33, 2-(6-(4-(1-aminocyclobutyl)phenyl)-2-oxo-7-phenyl-2,3-dihydro-1H-pyrido[2,3-b][1,4]oxazin-1-yl)acetonitrile], for which the pIC50 was not below 7.00 in assay [1], 6.00 to 7.00 in assay [2] and not below 7.00 in assay [3].

In the case of `CN(C)CCN1C(=O)COc2nc(-c3ccc(C4(N)CCC4)cc3)c(-c3ccccc3)cc21` [Example 34, 6-(4-(1-aminocyclobutyl)phenyl)-1-(2-(dimethylamino)ethyl)-7-phenyl-1H-pyrido[2,3-b][1,4]oxazin-2(3H)-one], the pIC50 in assay [1] is 5.00 to 6.00; in assay [2] it was less than 5.00; in assay [3] it was 5.00 to 6.00.

With `NC(=O)CN1C(=O)COc2nc(-c3ccc(C4(N)CCC4)cc3)c(-c3ccccc3)cc21` [Example 35, 2-(6-(4-(1-aminocyclobutyl)phenyl)-2-oxo-7-phenyl-2,3-dihydro-1H-pyrido[2,3-b][1,4]oxazin-1-yl)acetamide], the figures for the pIC50 in assay [1], in assay [2] and in assay [3] were 5.00 to 6.00, less than 5.00 and 6.00 to 7.00, respectively.

For `CC(=O)CN1C(=O)COc2nc(-c3ccc(C4(N)CCC4)cc3)c(-c3ccccc3)cc21` [Example 36, 6-(4-(1-aminocyclobutyl)phenyl)-1-(2-oxopropyl)-7-phenyl-1H-pyrido[2,3-b][1,4]oxazin-2(3H)-one], the values for the pIC50 in assay [1], in assay [2] and in assay [3] were 6.00 to 7.00, 5.00 to 6.00 and 5.00 to 6.00, respectively.

Regarding `NC1(c2ccc(-c3nc4c(cc3-c3ccccc3)NCCO4)cc2)CCC1` [Example 37, 1-(4-(7-phenyl-2,3-dihydro-1H-pyrido[2,3-b][1,4]oxazin-6-yl)phenyl)cyclobutanamine], the pIC50 was 6.00 to 7.00 in assay [1], less than 5.00 in assay [2] and 5.00 to 6.00 in assay [3].

In the case of `NC1(c2ccc(-c3nc4c(cc3-c3ccccc3)-n3c(n[nH]c3=O)CO4)cc2)CCC1` [Example 38, 7-(4-(1-aminocyclobutyl)phenyl)-8-phenyl-2,4-dihydro-1H-pyrido[2,3-b][1,2,4]triazolo[4,3-d][1,4]oxazin-1-one], the pIC50 in assay [1] is 6.00 to 7.00; in assay [2], 5.00 to 6.00; in assay [3], 6.00 to 7.00.

Take `NC1(c2ccc(-c3nc4c(cc3-c3ccccc3)-n3cnnc3CO4)cc2)CCC1` [Example 39, 1-(4-(8-phenyl-4H-pyrido[2,3-b][1,2,4]triazolo[4,3-d][1,4]oxazin-7-yl)phenyl)cyclobutanamine]: the values for the pIC50 in assay [1], in assay [2] and in assay [3] were 6.00 to 7.00, less than 5.00 and 5.00 to 6.00, respectively.

As to `CN1CCOc2nc(-c3ccc(C4(N)CCC4)cc3)c(-c3ccccc3)cc21` [Example 40, 1-(4-(1-methyl-7-phenyl-2,3-dihydro-1H-pyrido[2,3-b][1,4]oxazin-6-yl)phenyl)cyclobutanamine], the results for the negative-log IC50 (pIC50) in assay [1], in assay [2] and in assay [3] were 6.00 to 7.00, less than 5.00 and 5.00 to 6.00, respectively.

`CC(=O)N1CCOc2nc(-c3ccc(C4(N)CCC4)cc3)c(-c3ccccc3)cc21` [Example 41, 1-(6-(4-(1-aminocyclobutyl)phenyl)-7-phenyl-2,3-dihydro-1H-pyrido[2,3-b][1,4]oxazin-1-yl)ethanone]: the pIC50 in assay [1] is 5.00 to 6.00; in assay [2], less than 5.00; in assay [3] it was 6.00 to 7.00.

In the case of `NC1(c2ccc(-c3nc4c(cc3-c3ccccc3)N(Cc3ncc[nH]3)C(=O)CO4)cc2)CCC1` [Example 42, 1-((1H-imidazol-2-yl)methyl)-6-(4-(1-aminocyclobutyl)phenyl)-7-phenyl-1H-pyrido[2,3-b][1,4]oxazin-2(3H)-one], the pIC50 in assay [1] was 5.00 to 6.00; in assay [2] it was 5.00 to 6.00; in assay [3], 6.00 to 7.00.

`N#CCN1CCOc2nc(-c3ccc(C4(N)CCC4)cc3)c(-c3ccccc3)cc21` [Example 43, 2-(6-(4-(1-aminocyclobutyl)phenyl)-7-phenyl-2,3-dihydro-1H-pyrido[2,3-b][1,4]oxazin-1-yl)acetonitrile]: the values for the pIC50 in assay [1], in assay [2] and in assay [3] were 6.00 to 7.00, less than 5.00 and not below 7.00, respectively.

`NC(=O)CN1CCOc2nc(-c3ccc(C4(N)CCC4)cc3)c(-c3ccccc3)cc21` [Example 44, 2-(6-(4-(1-aminocyclobutyl)phenyl)-7-phenyl-2,3-dihydro-1H-pyrido[2,3-b][1,4]oxazin-1-yl)acetamide]: the pIC50 is 5.00 to 6.00 in assay [1], less than 5.00 in assay [2] and 5.00 to 6.00 in assay [3].

For `NC1(c2ccc(-c3nc4c(cc3-c3ccccc3)N(Cc3ccncc3)C(=O)CO4)cc2)CCC1` [Example 45, 6-(4-(1-aminocyclobutyl)phenyl)-7-phenyl-1-(pyridin-4-ylmethyl)-1H-pyrido[2,3-b][1,4]oxazin-2(3H)-one], the pIC50 in assay [1] is 5.00 to 6.00; in assay [2] it was 5.00 to 6.00; in assay [3], 6.00 to 7.00.

With `NC1(c2ccc(-c3nc4c(cc3-c3ccccc3)N(Cc3cccnc3)C(=O)CO4)cc2)CCC1` [Example 46, 6-(4-(1-aminocyclobutyl)phenyl)-7-phenyl-1-(pyridin-3-ylmethyl)-1H-pyrido[2,3-b][1,4]oxazin-2(3H)-one], the pIC50 in assay [1], in assay [2] and in assay [3] was 6.00 to 7.00 in each case.

For `CCc1nnc2n1-c1cc(-c3ccccc3)c(-c3ccc(C4(N)CCC4)cc3)nc1OC2` [Example 47, 1-(4-(1-ethyl-8-phenyl-4H-pyrido[2,3-b][1,2,4]triazolo[4,3-d][1,4]oxazin-7-yl)phenyl)cyclobutanamine], the negative logarithm of the IC50 (pIC50) was not below 7.00 in assay [1], 5.00 to 6.00 in assay [2] and 6.00 to 7.00 in assay [3].

In the case of `NC1(c2ccc(-c3nc4c(cc3-c3ccccc3)N(CC3CCC3)C(=O)CO4)cc2)CCC1` [Example 48, 6-(4-(1-aminocyclobutyl)phenyl)-1-(cyclobutylmethyl)-7-phenyl-1H-pyrido[2,3-b][1,4]oxazin-2(3H)-one], the pIC50 is 6.00 to 7.00 in assay [1], 6.00 to 7.00 in assay [2] and not below 7.00 in assay [3].
